Reference: patent US20050209157A1, “Short bioactive peptides and methods for their use” (priority 2001, published 2005)
Read-outs that look alike come from different tables or passages of the source. No end group written: not given here.

Legend:
S. epidermidis C621 = format: cell-based, Staphylococcus epidermidis; conditions: mean of three; 16 to 20 hours at 35° C.
S. pyogenes M76 = assay: Antimicrobial assays II, NCCLS broth microdilution MIC; format: cell-based, Streptococcus pyogenes; conditions: mean of three; 16 to 20 hours at 35° C.
S. pyogenes ATCC19615 = assay: as above; format: cell-based, Streptococcus pyogenes; conditions: mean of three, in µg/mL
P. acne ATCC 6919 = assay: as above; format: cell-based, Propionibacterium acnes; conditions: mean of three, in µg/mL
P. aeruginosa = format: cell-based, Pseudomonas aeruginosa; conditions: P. aeruginosa H744; MIC of nalidixic acid with peptide at ¼ MIC
Outline: (§1)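 Synergy against efflux-mutant strains: two-fold dilutions of nalidixic acid or chloramphenicol tested with peptide held at ¼ of its MIC.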

P. aeruginosa H774 = format: cell-based, Pseudomonas aeruginosa; conditions: P. aeruginosa H744; nalidixic acid + peptide at ¼ MIC; 0.5 or less = synergy
Outline: as §1

P. aeruginosa H374 = format: cell-based, Pseudomonas aeruginosa; conditions: for MIC Cm-comb.: MIC of chloramphenicol with peptide at ¼ MIC; for MIC Nal-comb.: MIC of nalidixic acid with peptide at ¼ MIC; for FIC Index: 0.5 or less = synergy
Outline: as §1

S. aureus (MRSA) = format: cell-based, Staphylococcus aureus; conditions: mean of three; 16 to 20 hours at 35° C.
WI38 = conditions: MTT, 24 hours with peptide; normal fibroblast line
Experimental: (§3) Viability of cells is determined by the dye response. In the following procedure, approximately 1.5×10^4 cells per well were added and viability was determined with the cells in a semi-confluent state. The assay was performed in a 96-well microtiter plate. After addition of peptide, the plate was set for 24 hours. MTT (5 mg/ml in phenol red-free RPMI-1640, 20 μl) was added to each well including positive control wells untreated with peptide. The plate was incubated at 37° C. for 4 hours. The liquid contents of each well was removed, and isopropanol with 0.1 M HCl (100 μl) was added to each well. The plate was sealed with parafilm to prevent evaporation of the isopropanol. The plate is allowed to rest for 5-10 minutes in order to solubilize the precipitate. Purified water (100 μl) was added to each well. Absorbance was determined with an ELISA Reader instrument. Color intensity at 540 nm is proportional to viability of cells.
(§4) WI38 (ATCC No. CCL75) is a normal fibroblast line of lung diploid cells, MCF7 (ATCC No. HTB22) is a breast adenocarcinoma tumor cell line, SW480 (ATCC No. CCL228) is a colon adenocarcinoma tumor cell line, BMKC is a cloned melanoma line derived from Bowes melanoma line HMCB (ATCC No. CRL9607), H1299 (ATCC No. CRL5803) is a lung large cell carcinoma tumor line, HeLaS3 (ATCC No. CCL2.2) is a cervical epitheleal carcinoma tumor cell line, and PC3 (ATCC No. CRL1435) is a prostate adenocarcinoma tumor cell line.

[1] = tested on: Staphylococcus aureus ATCC 6538; assay: Antimicrobial assay I, MIC by OD measurement; format: cell-based; conditions: 37° C. for 24 hours, absorbance 620 nm
[2] = tested on: Pseudomonas aeruginosa ATCC 9027; assay: Antimicrobial assay I, MIC by OD measurement; format: cell-based; conditions: 37° C. for 24 hours, absorbance 620 nm
S. pneumoniae C718 = assay: Antimicrobial assays II, NCCLS broth microdilution MIC; format: cell-based, Streptococcus pneumoniae; conditions: mean of three
in vitro [3] = format: cell-based, human; conditions: human, human red blood cells, pH 7, hemolytic assay, concentration at 50% hemolysis, 1 hour at 37° C.; read-out: LD50
in vitro [4] = conditions: human, WI38 normal lung fibroblast cells, LD50 WI38, WI38 normal lung fibroblast line, MTT, 24 hours with peptide
Experimental: as §3, §4

PC3 = assay: Anti-cancer assay, MTT, LD50; format: cell-based; conditions: 24 hours with peptide, prostate adenocarcinoma
Text: (§2) Numbers are LD50 values (μg/mL).

BMKC = assay: Anti-cancer assay, MTT, LD50; format: cell-based; conditions: BMKC cloned melanoma line, 24 hours with peptide
Text: as §2

MCF7 = assay: Anti-cancer assay, MTT, LD50; format: cell-based; conditions: MCF7 breast adenocarcinoma line, MTT, 24 hours with peptide
Text: as §2

HeLaS3 = assay: Anti-cancer assay, MTT, LD50; format: cell-based; conditions: 24 hours with peptide, cervical carcinoma
Text: as §2

SW480 = assay: Anti-cancer assay, MTT, LD50; format: cell-based; conditions: SW480 colon adenocarcinoma line, 24 hours with peptide
Text: as §2

H1299 = assay: Anti-cancer assay, MTT, LD50; format: cell-based; conditions: 24 hours with peptide, lung large cell carcinoma
Text: as §2

[5] = tested on: yeast (Saccharomyces cerevisiae); assay: Antimicrobial assay I, yeast assay in RPMI 1640; format: cell-based; conditions: RPMI 1640 media
S. pneumoniae C719 = assay: Antimicrobial assays II, NCCLS broth microdilution MIC; format: cell-based, Streptococcus pneumoniae; conditions: mean of three, in µg/mL
[6] = chloramphenicol + peptide at ¼ MIC
[7] = nalidixic acid + peptide at ¼ MIC, FIC=0.25+MIC comb/MIC alone

FALAAKALKKLAKKLKKLAKKAL-NH2 [P23]
S. epidermidis C621 MIC (S. epidermidis C621): 16 µg/mL | S. pyogenes M76 MIC (S. pyogenes M76): 16 µg/mL | S. pyogenes MIC (S. pyogenes ATCC19615): 8 | P. acne MIC (P. acne ATCC 6919): 4 | MIC Nal-comb. (P. aeruginosa): 624 µg/mL | FIC Index (P. aeruginosa H774): 1.25 | MIC Cm-comb. (P. aeruginosa H374): 8 µg/mL | MIC Nal-comb. (P. aeruginosa H374): 2500 µg/mL | FIC Index (P. aeruginosa H374; [6]): 0.75 | FIC Index (P. aeruginosa H374; [7]): 0.75 | S. aureus (MRSA) MIC (S. aureus (MRSA)): 32 µg/mL | WI38 LD50 (WI38): 34 µg/mL | staph6538 (MIC) [1]: 5 µg/mL | paerug9027 (MIC) [2]: 50 µg/mL | S. pneumoniae MIC (S. pneumoniae C718): 16 µg/mL | HC50 at 1 h (in vitro [3]): 300 µg/mL | CC50 at 24 h (in vitro [4]): 34 µg/mL | PC3 LD50 (PC3): 41 µg/mL | LD50 BMKC (BMKC): 27 µg/mL | LD50 MCF7 (MCF7): 62 µg/mL | HeLaS3 LD50 (HeLaS3): 82 µg/mL | LD50 SW480 (SW480): 5 µg/mL | H1299 LD50 (H1299): 64 µg/mL | yeast (MIC or MFC) [5]: 100 µg/mL | S. pneumoniae MIC (S. pneumoniae C719): 16

FALALKALKKLAKKLKKLAKKAL-NH2 [P25]
S. epidermidis C621 MIC (S. epidermidis C621): 4 µg/mL | S. pyogenes M76 MIC (S. pyogenes M76): 8 µg/mL | S. pyogenes MIC (S. pyogenes ATCC19615): 8 | P. acne MIC (P. acne ATCC 6919): 2 | MIC Nal-comb. (P. aeruginosa): 156 µg/mL | FIC Index (P. aeruginosa H774): 0.5 | MIC Cm-comb. (P. aeruginosa H374): 4 µg/mL | MIC Nal-comb. (P. aeruginosa H374): 2500 µg/mL | FIC Index (P. aeruginosa H374; [6]): 0.5 | FIC Index (P. aeruginosa H374; [7]): 0.75 | S. aureus (MRSA) MIC (S. aureus (MRSA)): 16 µg/mL | WI38 LD50 (WI38): 24 µg/mL | staph6538 (MIC) [1]: 10 µg/mL | paerug9027 (MIC) [2]: 5 µg/mL | S. pneumoniae MIC (S. pneumoniae C718): 64 µg/mL | HC50 at 1 h (in vitro [3]): 16 µg/mL | CC50 at 24 h (in vitro [4]): 24 µg/mL | PC3 LD50 (PC3): 12 µg/mL | LD50 BMKC (BMKC): 36 µg/mL | LD50 MCF7 (MCF7): 10 µg/mL | HeLaS3 LD50 (HeLaS3): 20 µg/mL | LD50 SW480 (SW480): 12 µg/mL | H1299 LD50 (H1299): 37 µg/mL | yeast (MIC or MFC) [5]: 25 µg/mL | S. pneumoniae MIC (S. pneumoniae C719): 8

FAKKLAKKLAKLL-NH2 [P75]
S. epidermidis C621 MIC (S. epidermidis C621): 8 µg/mL | S. pyogenes M76 MIC (S. pyogenes M76): 8 µg/mL | S. pyogenes MIC (S. pyogenes ATCC19615): 4 | P. acne MIC (P. acne ATCC 6919): 16 | MIC Nal-comb. (P. aeruginosa): 624 µg/mL | FIC Index (P. aeruginosa H774): 1.25 | MIC Cm-comb. (P. aeruginosa H374): 8 µg/mL | MIC Nal-comb. (P. aeruginosa H374): 2500 µg/mL | FIC Index (P. aeruginosa H374; [6]): 0.75 | FIC Index (P. aeruginosa H374; [7]): 0.75 | S. aureus (MRSA) MIC (S. aureus (MRSA)): 32 µg/mL | WI38 LD50 (WI38): 80 µg/mL | staph6538 (MIC) [1]: 5 µg/mL | paerug9027 (MIC) [2]: 5 µg/mL | S. pneumoniae MIC (S. pneumoniae C718): > 128 µg/mL | HC50 at 1 h (in vitro [3]): 750 µg/mL | CC50 at 24 h (in vitro [4]): 80 µg/mL | PC3 LD50 (PC3): 54 µg/mL | LD50 BMKC (BMKC): 24 µg/mL | LD50 MCF7 (MCF7): 42 µg/mL | HeLaS3 LD50 (HeLaS3): 74 µg/mL | LD50 SW480 (SW480): 17 µg/mL | H1299 LD50 (H1299): 80 µg/mL | yeast (MIC or MFC) [5]: 50 µg/mL | S. pneumoniae MIC (S. pneumoniae C719): 64

FAKLLAKALKKFAL-NH2 [P119, FAKLLAKALKKFAL-NH2]
S. epidermidis C621 MIC (S. epidermidis C621): 4 µg/mL | S. pyogenes M76 MIC (S. pyogenes M76): 8 µg/mL | S. pyogenes MIC (S. pyogenes ATCC19615): 8 | P. acne MIC (P. acne ATCC 6919): 8 | MIC Nal-comb. (P. aeruginosa): 624 µg/mL | FIC Index (P. aeruginosa H774): 1.25 | MIC Cm-comb. (P. aeruginosa H374): 16 µg/mL | MIC Nal-comb. (P. aeruginosa H374): 2500 µg/mL | FIC Index (P. aeruginosa H374; [6]): 1.25 | FIC Index (P. aeruginosa H374; [7]): 0.75 | S. aureus (MRSA) MIC (S. aureus (MRSA)): 8 µg/mL | WI38 LD50 (WI38): 45 µg/mL | staph6538 (MIC) [1]: 50 µg/mL | paerug9027 (MIC) [2]: 25 µg/mL | S. pneumoniae MIC (S. pneumoniae C718): 128 µg/mL | HC50 at 1 h (in vitro [3]): 400 µg/mL | CC50 at 24 h (in vitro [4]): 45 µg/mL | PC3 LD50 (PC3): 140 µg/mL | LD50 BMKC (BMKC): 36 µg/mL | LD50 MCF7 (MCF7): 54 µg/mL | HeLaS3 LD50 (HeLaS3): 30 µg/mL | LD50 SW480 (SW480): 46 µg/mL | H1299 LD50 (H1299): 33 µg/mL | yeast (MIC or MFC) [5]: 50 µg/mL | S. pneumoniae MIC (S. pneumoniae C719): 32
